Measurements as given in patent US20220264878A1, “HERBICIDAL COMPOSITION CONTAINING R-TYPE PYRIDYLOXY CARBOXYLIC ACID DERIVATIVE AND USE THEREOF” (Qingdao Kingagroot Chemical Compound Co., Ltd., priority 2019, published 2022).

How the values were obtained:
Assay in all cases: Post-emergence foliage spray, pot culture, fresh weight inhibition (Tables 1-48, 51-98, 101-148; 24 days)
Type in all cases: in vivo
[1] = test system: Sonchus oleraceus L.
Outline: (§1)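 Greenhouse pot plants (20–30 °C, natural light, 57–72% RH) were sprayed once on foliage at 450 kg/ha and 0.3 MPa, at the 5–6-leaf (grass) or 6–7-leaf (broadleaf) stage. Compounds were in acetone diluted with 0.1% Tween-80 water. Surviving shoots were weighed at 24 days; dead plants counted as zero.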

[2] = test system: Ipomoea purpurea; details: Table 98
Outline: as §1

[3] = test system: Conyza Canadensis
Outline: as §1

[4] = test system: Xanthium strumarium
Outline: as §1

[5] = test system: Abutilon theophrasti
Outline: as §1

[6] = test system: Sinapis arvensis
Outline: as §1

[7] = test system: Capsella bursa-pastoris
Outline: as §1

[8] = test system: Setaria faberi
Outline: as §1

[9] = test system: Setaria glauca; details: Table 84
Outline: as §1

[10] = test system: Galium aparine L.; details: 24 days
Outline: (§2)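 Pot-grown weeds were thinned to 15 per pot (45 per treatment) and sprayed on foliage at the 5–6-leaf stage for grasses or the 6–7-leaf stage for broadleaves. Agents were dissolved in acetone with 0.1% Tween-80 and applied at 450 kg/ha spray volume and 0.3 MPa. Plants were then kept in a greenhouse. Above-ground fresh weight of survivors, with dead plants counted as zero, gave inhibition versus a solvent/emulsifier blank.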

[11] = test system: Malachium aquaticum
Outline: as §2

[12] = test system: Stellaria media; details: Table 105
Outline: as §2

[13] = test system: Chloris virgata
Outline: as §1

[14] = test system: Cirsium setosum; details: Table 111
Outline: as §1

[15] = test system: Acalypha australis
Outline: as §1

[16] = test system: Beckmannia syzigachne
Outline: as §1

[17] = test system: Solanum nigrum
Outline: as §1

[18] = test system: Ammannia arenaria; details: Table 103
Outline: as §1

[19] = test system: Sonchus arvensis
Outline: as §1

In the case of `CC(C)N(C)S(=O)(=O)NC(=O)c1cc(-n2c(=O)cc(C(F)(F)F)n(C)c2=O)c(F)cc1Cl` [saflufenacil], the “Control effect (%) of B applied alone in corresponding dose” value (shortened to “Control effect (%) of B applied alone”) ([1]; B 3.75 g a.i./ha) is reported as 5.4%, the “Control effect (%) of B applied alone” value ([1]; B 7.5 g a.i./ha) is reported as 13.9% and the “Control effect (%) of B applied alone” value ([1]; B 15 g a.i./ha) is reported as 40.9%. The “Control effect (%) of B applied alone” value ([1]; B 30 g a.i./ha) was 76.6%, the “Control effect (%) of B applied alone” value ([2]; 3.75 g a.i./ha) was 7.9% and the “Control effect (%) of B applied alone” value ([2]; 7.5 g a.i./ha) was 16.0%. The “Control effect (%) of B applied alone” value ([2]; 15 g a.i./ha) was 41.3%, the “Control effect (%) of B applied alone” value ([2]; 30 g a.i./ha) was 75.9% and the “Control effect (%) of B applied alone” value ([3]; saflufenacil 3.75 g a.i./ha) was 3.0%. The “Control effect (%) of B applied alone” value ([3]; saflufenacil 7.5 g a.i./ha) was 11.9%, the “Control effect (%) of B applied alone” value ([3]; saflufenacil 15 g a.i./ha) was 39.2% and the “Control effect (%) of B applied alone” value ([3]; saflufenacil 30 g a.i./ha) was 76.5%.
In the case of `CC(C)N1C(=O)c2ccccc2NS1(=O)=O` [bentazone], the “Control effect (%) of B applied alone” value ([4]; B 18.75 g a.i./ha) is reported as 10.9%, the “Control effect (%) of B applied alone” value ([4]; B 37.5 g a.i./ha) is reported as 16.1% and the “Control effect (%) of B applied alone” value ([4]; B 75 g a.i./ha) is reported as 46.6%. For the same compound, the “Control effect (%) of B applied alone” value ([4]; B 150 g a.i./ha) was 76.5%, the “Control effect (%) of B applied alone” value ([5]; bentazone 18.75 g a.i./ha) was 5.9% and the “Control effect (%) of B applied alone” value ([5]; bentazone 37.5 g a.i./ha) was 11.8%. The “Control effect (%) of B applied alone” value ([5]; bentazone 75 g a.i./ha) was 49.0% and the “Control effect (%) of B applied alone” value ([5]; bentazone 150 g a.i./ha) was 69.1%.
In the case of `Cc1nn(C)cc1C(=O)Oc1c(C(=O)c2ccc(C(F)(F)F)cc2S(C)(=O)=O)c(C)nn1C` [bipyrazone], the “Control effect (%) of B applied alone” value ([6]; B 1.875 g a.i./ha) is reported as 9.9%, the “Control effect (%) of B applied alone” value ([6]; B 3.75 g a.i./ha) is reported as 23.8% and the “Control effect (%) of B applied alone” value ([6]; B 7.5 g a.i./ha) is reported as 50.8%. For the same compound, the “Control effect (%) of B applied alone” value ([6]; B 15 g a.i./ha) was 83.7%, the “Control effect (%) of B applied alone” value ([7]; bipyrazone 18.75 g a.i./ha) was 2.9% and the “Control effect (%) of B applied alone” value ([7]; bipyrazone 37.5 g a.i./ha) was 12.9%. For the same compound, the “Control effect (%) of B applied alone” value ([7]; bipyrazone 75 g a.i./ha) was 51.1% and the “Control effect (%) of B applied alone” value ([7]; bipyrazone 150 g a.i./ha) was 80.3%.
With `Cc1c(C(=O)c2cnn(C)c2O)ccc(S(C)(=O)=O)c1C1=NOCC1` [topramezone] the “Control effect (%) of B applied alone” value ([8]; B 1.875 g a.i./ha) was 3.2%, the “Control effect (%) of B applied alone” value ([8]; B 3.75 g a.i./ha) was 11.7% and the “Control effect (%) of B applied alone” value ([8]; B 7.5 g a.i./ha) was 36.5%. For the same compound, the “Control effect (%) of B applied alone” value ([8]; B 15 g a.i./ha) was 75.4%, the “Control effect (%) of B applied alone” value ([9]; 1.875 g a.i./ha) was 7.3% and the “Control effect (%) of B applied alone” value ([9]; 3.75 g a.i./ha) was 10.6%. For the same compound, the “Control effect (%) of B applied alone” value ([9]; 7.5 g a.i./ha) was 35.8% and the “Control effect (%) of B applied alone” value ([9]; 15 g a.i./ha) was 72.3%.
`COc1ncc(F)c2nc(S(=O)(=O)Nc3c(F)cccc3F)nn12` [florasulam] was tested, and the “Control effect (%) of B applied alone” value ([10]; B 0.375 g a.i/ha) was 4.8%, the “Control effect (%) of B applied alone” value ([10]; B 0.75 g a.i/ha) was 20.6% and the “Control effect (%) of B applied alone” value ([10]; B 1.5 g a.i/ha) was 56.3%. For the same compound, the “Control effect (%) of B applied alone” value ([10]; B 3.0 g a.i/ha) was 76.2%, the “Control effect (%) of B applied alone” value ([11]; florasulam 0.375 g a.i./ha) was 3.6% and the “Control effect (%) of B applied alone” value ([11]; florasulam 0.75 g a.i./ha) was 17.4%. For the same compound, the “Control effect (%) of B applied alone” value ([11]; florasulam 1.5 g a.i./ha) was 56.4%, the “Control effect (%) of B applied alone” value ([11]; florasulam 3.0 g a.i./ha) was 77.6% and the “Control effect (%) of B applied alone” value ([12]; 0.375 g a.i./ha) was 6.8%. For the same compound, the “Control effect (%) of B applied alone” value ([12]; 0.75 g a.i./ha) was 22.3%, the “Control effect (%) of B applied alone” value ([12]; 1.5 g a.i./ha) was 56.9% and the “Control effect (%) of B applied alone” value ([12]; 3.0 g a.i./ha) was 76.6%.
For `C[C@@H](Oc1nc(F)c(Cl)c(N)c1Cl)C(=O)[O-].[Na+]` [Compound A3, A1 sodium salt], the “Control effect (%) of A applied alone in corresponding dose” value (“Control effect (%) of A applied alone” below) ([12]; 7.5 g a.i./ha) was 34.1%, the “Control effect (%) of A applied alone” value ([12]; 15 g a.i./ha) was 67.9% and the “Control effect (%) of A applied alone” value ([6]; A 15 g a.i./ha) was 33.2%. For the same compound, the “Control effect (%) of A applied alone” value ([6]; A 30 g a.i./ha) was 72.7%, the “Control effect (%) of A applied alone” value ([13]; A 75 g a.i./ha) was 22.0% and the “Control effect (%) of A applied alone” value ([13]; A 150 g a.i./ha) was 48.3%. For the same compound, the “Control effect (%) of A applied alone” value ([14]; 30 g a.i./ha) was 31.5%, the “Control effect (%) of A applied alone” value ([14]; 60 g a.i./ha) was 64.3% and the “Control effect (%) of A applied alone” value ([4]; A 7.5 g a.i./ha) was 40.8%. The “Control effect (%) of A applied alone” value ([4]; A 15 g a.i./ha) was 77.2%, the “Control effect (%) of A applied alone” value ([1]; A 75 g a.i./ha) was 33.8% and the “Control effect (%) of A applied alone” value ([1]; A 150 g a.i./ha) was 55.5%. The “Control effect (%) of A applied alone” value ([8]; A 30 g a.i./ha) was 32.5%, the “Control effect (%) of A applied alone” value ([8]; A 60 g a.i./ha) was 55.4% and the “Control effect (%) of A applied alone” value ([15]; A 75 g a.i./ha) was 20.7%. For the same compound, the “Control effect (%) of A applied alone” value ([15]; A 150 g a.i./ha) was 51.6%, the “Control effect (%) of A applied alone” value ([16]; A 75 g a.i./ha) was 23.0% and the “Control effect (%) of A applied alone” value ([16]; A 150 g a.i./ha) was 42.8%. The “Control effect (%) of A applied alone” value ([17]; A 75 g a.i./ha) was 16.9%, the “Control effect (%) of A applied alone” value ([17]; A 150 g a.i./ha) was 37.5% and the “Control effect (%) of A applied alone” value ([18]; 75 g a.i./ha) was 30.4%. The “Control effect (%) of A applied alone” value ([18]; 150 g a.i./ha) was 66.2%.
`CCOc1nc(F)cc2nc(S(=O)(=O)Nc3c(Cl)cccc3C(=O)OC)nn12` [cloransulam-methyl] was tested, and the “Control effect (%) of B applied alone” value ([14]; 1.875 g a.i./ha) was 13.6%, the “Control effect (%) of B applied alone” value ([14]; 3.75 g a.i./ha) was 23.1% and the “Control effect (%) of B applied alone” value ([14]; 7.5 g a.i./ha) was 53.8%. The “Control effect (%) of B applied alone” value ([14]; 15 g a.i./ha) was 71.9%, the “Control effect (%) of B applied alone” value ([19]; cloransulam-methyl 1.875 g a.i./ha) was 6.5% and the “Control effect (%) of B applied alone” value ([19]; cloransulam-methyl 3.75 g a.i./ha) was 15.0%. For the same compound, the “Control effect (%) of B applied alone” value ([19]; cloransulam-methyl 7.5 g a.i./ha) was 52.8% and the “Control effect (%) of B applied alone” value ([19]; cloransulam-methyl 15 g a.i./ha) was 72.9%.
